Data: patent US20130116267A1 (priority 2010, published 2013)
“Also recorded” adds a separate entry of the source. Where two headings read alike, the source gives them in different places.

Experiments:
PI3K p110 delta = PI3K p110 delta (Homo sapiens, UniProt O00329); settings: cited from earlier work
CD3-induced IL-2 release = settings: Lewis rats; cited from earlier work
neutrophils = settings: read-out: IC50 in fMLP-induced elastase exocytosis from neutrophils; cited from earlier work
[1] = tested on: PHA-activated CD4+ T cells; assay: CD25 expression on CD4+ T cells exposed to HIV-1 (flow cytometry); format: cell-based, human; settings: PHA-activated CD4+ T cells exposed to HIV-1; different concentrations, n=3; FIG. 6
[2] = tested on: H7N7 A/Equine/London/1416/73 influenza virus strain; format: in vivo; settings: wild type mice, 10×LD50 H7N7 London strain; vs vehicle only; FIG. 3B
[3] = tested on: influenza virus strain PR8; format: cell-based
HIV-1Ba-L = assay: HIV-1 p24 levels in supernatants of infected PHA/IL-2-activated PBMC; format: cell-based; settings: n=4 donors, PBMC cultured with 1 μM, 10 μM or 50 μM, FIG. 4

Chain of PI3K p110 delta (O00329 whole entry): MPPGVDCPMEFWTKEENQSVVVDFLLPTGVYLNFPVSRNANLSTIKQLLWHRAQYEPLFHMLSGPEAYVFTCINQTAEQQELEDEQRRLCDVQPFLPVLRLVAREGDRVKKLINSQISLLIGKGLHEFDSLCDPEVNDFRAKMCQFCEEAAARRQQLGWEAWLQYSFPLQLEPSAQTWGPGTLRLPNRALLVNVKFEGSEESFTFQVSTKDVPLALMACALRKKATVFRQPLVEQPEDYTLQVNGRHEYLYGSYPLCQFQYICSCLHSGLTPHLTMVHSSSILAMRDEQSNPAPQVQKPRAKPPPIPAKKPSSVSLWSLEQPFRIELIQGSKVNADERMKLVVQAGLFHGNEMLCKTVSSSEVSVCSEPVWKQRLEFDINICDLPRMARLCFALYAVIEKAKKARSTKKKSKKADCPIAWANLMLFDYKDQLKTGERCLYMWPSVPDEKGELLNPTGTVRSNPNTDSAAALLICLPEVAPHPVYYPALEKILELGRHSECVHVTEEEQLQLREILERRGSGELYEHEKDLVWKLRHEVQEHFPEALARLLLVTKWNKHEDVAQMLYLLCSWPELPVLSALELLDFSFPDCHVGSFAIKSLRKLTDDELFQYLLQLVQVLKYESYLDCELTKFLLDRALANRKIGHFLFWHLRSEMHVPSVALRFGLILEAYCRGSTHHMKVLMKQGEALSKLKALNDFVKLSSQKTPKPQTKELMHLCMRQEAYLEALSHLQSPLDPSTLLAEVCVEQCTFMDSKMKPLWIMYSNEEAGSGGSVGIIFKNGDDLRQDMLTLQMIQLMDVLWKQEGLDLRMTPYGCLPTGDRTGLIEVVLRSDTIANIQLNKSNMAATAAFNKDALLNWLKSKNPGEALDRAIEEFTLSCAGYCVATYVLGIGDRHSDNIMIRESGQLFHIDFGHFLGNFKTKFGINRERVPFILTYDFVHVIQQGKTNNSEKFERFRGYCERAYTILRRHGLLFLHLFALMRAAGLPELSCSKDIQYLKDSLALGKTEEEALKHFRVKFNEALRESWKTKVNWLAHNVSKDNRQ
Chain of PI3K p110 delta (P27986 whole entry partner): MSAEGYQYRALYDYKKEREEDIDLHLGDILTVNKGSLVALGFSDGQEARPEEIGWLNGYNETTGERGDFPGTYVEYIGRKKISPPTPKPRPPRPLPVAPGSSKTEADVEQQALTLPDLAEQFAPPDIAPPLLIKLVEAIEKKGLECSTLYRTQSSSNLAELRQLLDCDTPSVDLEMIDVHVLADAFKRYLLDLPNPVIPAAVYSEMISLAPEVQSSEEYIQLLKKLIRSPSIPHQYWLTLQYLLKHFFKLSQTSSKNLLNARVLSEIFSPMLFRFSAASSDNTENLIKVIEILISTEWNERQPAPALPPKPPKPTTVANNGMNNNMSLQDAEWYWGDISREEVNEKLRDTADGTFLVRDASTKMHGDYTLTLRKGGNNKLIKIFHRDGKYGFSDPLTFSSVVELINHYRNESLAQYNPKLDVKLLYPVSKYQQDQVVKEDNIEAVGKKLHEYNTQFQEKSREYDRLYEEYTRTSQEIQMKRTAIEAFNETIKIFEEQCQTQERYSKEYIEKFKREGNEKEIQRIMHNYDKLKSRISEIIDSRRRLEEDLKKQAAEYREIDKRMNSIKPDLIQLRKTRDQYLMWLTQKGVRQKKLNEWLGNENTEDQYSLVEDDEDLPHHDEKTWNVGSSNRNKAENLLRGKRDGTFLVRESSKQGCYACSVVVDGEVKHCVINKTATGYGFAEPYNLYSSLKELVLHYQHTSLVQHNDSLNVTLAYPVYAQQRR

## Cc1oc2ncn(CC(C)C)c(=O)c2c1C(=O)NCc1cccnc1 [Compound (VI), 3-isobutyl-6-methyl-4-oxo-N-(pyridin-3-ylmethyl)-3,4-dihydrofuro[2,3-d]pyrimidine-5-carboxamide]
PI3K p110 delta; read-out: PI3K p110 delta IC50
  IC50: 1200 nM

## CC(c1nc2ccsc2c(=O)n1-c1ccccc1)n1cnc2c(N)ncnc21 (stereo not drawn) [Compound (IV), 2-(1-(6-amino-9H-purin-9-yl)ethyl)-3-phenylthieno[3,2-d]pyrimidin-4(3H)-one]
PI3K p110 delta; read-out: PI3K p110 delta IC50
  IC50: 40 nM

## COCC(O)Cn1cc(-c2ccc3c(c2)N(c2nc4c(s2)C(=O)NC(C)(C)C4)CCO3)cn1 (stereo not drawn) [Compound (XXI), 2-(6-(1-(2-hydroxy-3-methoxypropyl)-1H-pyrazol-4-yl)-2H-benzo[b][1,4]oxazin-4(3H)-yl)-6,6-dimethyl-6,7-dihydrothiazolo[5,4-c]pyridin-4(5H)-one]
CD3-induced IL-2 release
  ED50 in a CD3-induced IL-2 release study: 5 mg/kg

## Nc1nc(N)c2nc(-c3cccc4[nH]ccc34)cnc2n1 [Compound (XXIX), 6-(1H-indol-4-yl)pteridine-2,4-diamine]
PI3K p110 delta; read-out: PI3K p110 delta IC50
  IC50: 64 nM

## Cc1noc2nc(C(C)Sc3ncnc4[nH]cnc34)n(-c3ccccc3)c(=O)c12 (stereo not drawn) [Compound (V), 6-(1-((9H-purin-6-yl)thio)ethyl)-3-methyl-5-phenylisoxazolo[5,4-d]pyrimidin-4(5H)-one]
neutrophils
  IC50: 1200 nM

## COc1ncc(-c2ccc3nccc(-c4ccncc4)c3c2)cc1NS(=O)(=O)c1ccc(F)cc1F [Compound (XXXII), 2,4-difluoro-N-(2-methoxy-5-(4-(pyridin-4-yl)quinolin-6-yl)pyridin-3-yl)-benzenesulfonamide]
PI3K p110 delta; read-out: apparent PI3K p110 delta IC50
  IC50: 0.024 nM

## Cc1ccccc1-n1c(Cn2cnc3c(N)ncnc32)nc2cccc(C)c2c1=O [IC87114, 2-[(6-amino-9H-purin-9-yl)methyl]-5-methyl-3-(o-tolyl)quinazolin-4(3H)-one]
[1]
  CD25 expression: not affected
[2]
  survival after lethal challenge: increased survival; also recorded: protects mice lethally challenged
A549 cell
  survival of A549 cell: did not affect the survival
[3]
  influenza virus replication: inhibits influenza virus replication
[3]; A549 epithelial cell line infected with influenza virus, FIG. 1B: 100 μM, PR8, MOI=0.01
  viral mRNA production reduced compared to untreated cells: ~25 fold
HIV-1Ba-L
  reduction of 48 hour HIV-1 p24 levels: approximately 80%
